Data: US12605407B2, “Methods to induce terminal differentiation in stem cells by interfering with DNA replication, methods of inducing pancreatic differentiation, and differentiated cells obtained thereof” (priority 2018, dated 2026)

Columns and labels:
pancreatic progenitors = assay: Beta cell differentiation from human pluripotent stem cells, flow cytometry of C-peptide and NKX6.1 positive cells; assay type: cell-based
Procedure: Beta cells differentiated from human pluripotent stem cell lines as described in Example 2 (Sui et al., 2018b). Indicated compounds that function as cell cycle inhibitors were added individually from day 15 to day 27 with concentration listed below:
The DNA replication inhibitors used in this study: 0.1 μM, 0.5 μM and 1 μM Aphidicolin (A0781, Sigma-Aldrich); 2.5 μM Cisplatin (232120, EMD Millipore); 100 μM Ciprofloxacin (S2027, Selleck Chemicals); 10 μM Pyridostatin (S7444, Selleck Chemicals); 10 μM E2F Inhibitor (324461, EMD Millipore); 0.05 μM A485 (6387, Tocris); 2 μM RL5a (SML2187, Sigma-Aldrich); and 2 μM Etoposide (E55500, Research Products International). Indicated compounds were added individually from day 15 to day 27 with indicated concentration.
The beta cell clusters were dissociated using TrypLE™ Express into single cells. Cells were fixed with 4% PFA for 10 min and followed by permeabilization at −20° C. with cold methanol for 10 min. Primary antibodies were added at a dilution of 1:100 in autoMACs Rinsing Solution (Cat. No. 130-091-222, Miltenyi Biotec) containing 0.5% BSA at 4° C. for 1 hour. Secondary antibodies were added at a dilution of 1:500 at room temperature for 1 hour. The cells were filtered with BD Falcon 12×75 mm tube with cell strainer cap (Cat. No. 352235, BD) and subsequently analyzed by flow cytometer. Data were analyzed using Flowjo software. Negative controls were performed by only adding secondary antibodies.
Aphidicolin (APH), a DNA polymerase inhibitor, was used to inhibit DNA replication (Koundrioukoff et al., 2013). […] The insulin expressing cells were evenly distributed in the islet-like clusters with high percentage indicated by the expression of GFP, whereas some parts of the clusters in control remained GFP negative (FIG. 1D).

NSG mice = assay: Transplantation of treated islet-like clusters, human C-peptide in mouse serum; assay type: in vivo
Procedure: 8-10 weeks old male immuno-compromised mice (NOD.Cg-Prkdcscid Il2rgtm1Wj1/SzJ (NSG) from Jackson laboratories, Cat. No. 005557) were used for transplantation. For intra leg muscle transplantation, 1-2 million cells were collected and settled in tube with 50 μl Matrigel. All animal protocols were approved by the Institutional Animal Care and Use Committee in Columbia University.
(§1) The human C-peptide levels in mouse serum were measured every two weeks in the fed state. Intraperitoneal glucose tolerance test was performed by fasting overnight and injecting 2 g/kg D-glucose solution at 2 weeks after mouse beta cells were ablated with one high dose (150 mg/kg) Streptozocin (Cat. No. S0130-1G, Sigma-Aldrich). Blood was collected in heparin-coated tube at fed state, fasting and 30 min after glucose injection. Plasma were collected by centrifuging tubes at 2000 g for 15 minutes at 4° C. The supernatants were collected for C-peptide and insulin detection with Mercodia M-Plex™ ARRAY Chemiluminescent Mercodia Beta Kit. Blood glucose levels was measured at fed state, fasting and every 30 minutes after glucose injection for 2 hours.
To test the ability of aphidicolin treated islet-like clusters to regulate blood glucose levels, treated and untreated cells were grafted into NSG mice on day 27 of differentiation. After transplantation in the immunodeficient mice, the mice transplanted with APH treated cells developed higher human C-peptide starting from 2 weeks after engraftment compared to that of control mice (FIG. 7A). The increase became significant from 6 weeks after transplantation (FIG. 7B).

STZ-treated mice = assay: Protection from diabetes after ablation of mouse beta cells by streptozotocin, glucose tolerance test; assay type: in vivo
Procedure: as §1
The ability of APH treated cells to protect mice from diabetes was determined after eliminating endogenous mouse beta cells by streptozotocin (STZ). STZ ablates mouse beta cells but is not toxic to human beta cells at the concentrations used. After STZ treatment, the blood glucose levels were monitored and grafted beta cells were challenged with high glucose to check their function. The blood glucose levels remained in the normal range over time in 3 out of 4 mice (FIG. 7E). Mice were tolerant to glucose and normalized blood glucose levels within 15 min of glucose injection (FIG. 7F). The secretion of human C-peptide and insulin decreased after fasting and increased after glucose injection (FIG. 7G).

[1] = APH added d15-d20, d20-d27 or d15-d27, read at day 27, versus control

**Q.** With `C[C@@]1(CO)[C@H](O)CC[C@@]2(C)[C@H]1CC[C@H]1C[C@@H]3C[C@@]12CC[C@]3(O)CO` [APH, Aphidicolin] as the compound, how does the “variability of beta cell differentiation” value (pancreatic progenitors) read?
**A.** reduced

**Q.** What about the “percentage of c-peptide and NKX6.1 positive cells, comparison of concentrations” value (pancreatic progenitors; 1 μM, d15-d27, compared with 0.1 μM and 0.5 μM) of the same compound?
**A.** highest percentage

**Q.** What about the “proportion of C-peptide and NKX6.1 dual positive cells” value (pancreatic progenitors; [1]) of the same compound?
**A.** increased

**Q.** What about the “proportion of C-peptide positive cells” value (pancreatic progenitors; [1]) of the same compound?
**A.** increased

**Q.** What about the “differentiation toward C-peptide and NKX6.1 positive cells, comparison of treatment windows” value (pancreatic progenitors; APH added from day 15 to day 27) of the same compound?
**A.** most effective

**Q.** What about the “C-peptide positive cells in cultures” value (pancreatic progenitors; all n=12 independent differentiation experiments) of the same compound?
**A.** more than 50%

**Q.** What about the “effectiveness to induce differentiation of pancreatic progenitors to C-peptide positive cells, comparison within panel” value (pancreatic progenitors; day 27) of the same compound?
**A.** most effective

**Q.** What about the “secretion of human C-peptide in mice” value (NSG mice; after glucose injection) of the same compound?
**A.** increased

**Q.** What about the “increase of human C-peptide versus control mice, significance” value (NSG mice; from 6 weeks after transplantation) of the same compound?
**A.** significant

**Q.** What about the “human C-peptide compared to control mice” value (NSG mice; mice transplanted with APH treated cells, starting from 2 weeks after engraftment) of the same compound?
**A.** higher

**Q.** What about the “secretion of human C-peptide in mice” value (NSG mice; when mice were fasted) of the same compound?
**A.** downregulated

**Q.** What about the “mice whose blood glucose levels remained in the normal range over time” value (STZ-treated mice; after STZ treatment, mice transplanted with APH treated cells) of the same compound?
**A.** 3 out of 4

**Q.** What about the “secretion of human C-peptide and insulin” value (STZ-treated mice; after fasting) of the same compound?
**A.** decreased

**Q.** What about the “secretion of human C-peptide and insulin” value (STZ-treated mice; after glucose injection) of the same compound?
**A.** increased

**Q.** What about the “time to normalized blood glucose levels after glucose injection” value (STZ-treated mice; glucose tolerance test, STZ-treated mice) of the same compound?
**A.** ≤ 15 min
